Test results published in ChEMBL document CHEMBL5038609, “A camptothecin-based, albumin-binding prodrug enhances efficacy and safety in vivo” (Eur J Med Chem, 2021).
The source made the active and inactive calls. The rule behind the calls is not given here.

How the values were obtained:
HepG2 [1] = assay: Antiproliferative activity against human HepG2 cells assessed as reduction on cell proliferation in presence of beta-glucuronidase measured after 72 hrs by MTT assay; format: functional, cell-based
[2] = Plasma protein binding in male Sprague-Dawley rat measured after 2 mins by HPLC analysis; format: ADME, cell-free; conditions: read-out: PPB (converted)
[3] = Plasma protein binding in human measured after 0.25 mins by HPLC analysis; format: ADME, cell-free; conditions: read-out: PPB (converted)
4T1 [4] = assay: Antiproliferative activity against mouse 4T1 cells assessed as reduction on cell proliferation in presence of beta-glucuronidase measured after 72 hrs by MTT assay; format: functional, cell-based
[5] = Drug distribution in mouse 4T1 cells implanted in female BALB/c mouse assessed as fold change in tumor at 1.2 mg/kg, iv measured after 6 hrs by fluorescence detector; format: ADME, organism-based, Neoplasm; conditions: in vivo
[6] = Plasma protein binding in male Sprague-Dawley rat measured after 0.25 mins by HPLC analysis; format: ADME, cell-free; conditions: read-out: PPB (converted)
4T1 [7] = assay: Antitumor activity against mouse 4T1 cells implanted in female BALB/c mouse assessed as tumor cell apoptosis at 0.6 to 1.2 mg/kg, iv by TUNEL staining based fluorescence assay; format: functional, organism-based; conditions: dose 0.6-1.2 mg/kg
Mus musculus [8] = assay: Antitumor activity against mouse 4T1 cells implanted in female BALB/c mouse assessed as increase in body weight at 0.6 to 1.2 mg/kg, iv administered twice a week for 2 weeks; format: functional, organism-based; conditions: dose 0.6-1.2 mg/kg
[9] = Toxicity in mouse 4T1 cells implanted in female BALB/c mouse assessed as pathological changes in heart at 0.6 to 1.2 mg/kg, iv by H and E staining based analysis; format: organism-based; conditions: in vivo, dose 0.6-1.2 mg/kg
[10] = Plasma protein binding in female BALB/c mouse measured after 0.25 mins by HPLC analysis; format: ADME, cell-free; conditions: read-out: PPB (converted)
[11] = Plasma protein binding in human measured after 2 mins by HPLC analysis; format: ADME, cell-free; conditions: read-out: PPB (converted)
[12] = Toxicity in female BALB/c mouse assessed as body weight loss at 1 to 10 mg/kg, iv administered once daily for 14 consecutive days; format: organism-based; conditions: in vivo, 336 h, dose 1-10 mg/kg, time 14 day
[13] = Toxicity in iv dosed female BALB/c mouse assessed as maximum tolerated dose administered once daily for 14 consecutive days; format: organism-based; conditions: in vivo, time 14 day
HepG2 [14] = assay: Antiproliferative activity against human HepG2 cells assessed as reduction on cell proliferation measured after 72 hrs by MTT assay; format: functional, cell-based
[15] = Drug accumulation in mouse 4T1 cells implanted female BALB/c mouse tumor at 1.2 mg/kg, iv after 6 hrs by fluorescence detector; format: ADME, organism-based, Neoplasm; conditions: in vivo
[16] = Drug distribution in mouse 4T1 cells implanted in female BALB/c mouse assessed as fold change in tumor at 1.2 mg/kg, iv measured after 24 hrs by fluorescence detector; format: ADME, organism-based, Neoplasm; conditions: in vivo
4T1 [17] = assay: Antitumor activity against mouse 4T1 cells implanted in female BALB/c mouse assessed as inhibition of tumor growth at 0.6 to 1.2 mg/kg, iv by Ki67 staining based assay; format: functional, organism-based; conditions: dose 0.6-1.2 mg/kg
4T1 [18] = assay: Antitumor activity against mouse 4T1 cells implanted in female BALB/c mouse assessed as inhibition of tumor growth at 0.6 mg/kg, iv administered twice a week for 2 weeks measured on day 18; format: functional; set-up: scale not given: the % may be the effect or the level left; conditions: time 18 day
[19] = Toxicity in mouse 4T1 cells implanted in female BALB/c mouse assessed as pathological changes in kidney at 0.6 to 1.2 mg/kg, iv by H and E staining based analysis; format: organism-based; conditions: in vivo, dose 0.6-1.2 mg/kg
[20] = Toxicity in mouse 4T1 cells implanted in female BALB/c mouse assessed as pathological changes in liver at 0.6 to 1.2 mg/kg, iv by H and E staining based analysis; format: organism-based; conditions: in vivo, dose 0.6-1.2 mg/kg
HCT-116 [21] = assay: Antiproliferative activity against human HCT-116 cells assessed as reduction on cell proliferation measured after 72 hrs by MTT assay; format: functional, cell-based
albumin [22] = biological target: T1, albumin (Homo sapiens, UniProt P02768); assay: Protein binding in human serum albumin measured after 0.25 mins by HPLC analysis; format: ADME, cell-free; conditions: read-out: PPB (converted)
T1 sequence (P02768 whole entry): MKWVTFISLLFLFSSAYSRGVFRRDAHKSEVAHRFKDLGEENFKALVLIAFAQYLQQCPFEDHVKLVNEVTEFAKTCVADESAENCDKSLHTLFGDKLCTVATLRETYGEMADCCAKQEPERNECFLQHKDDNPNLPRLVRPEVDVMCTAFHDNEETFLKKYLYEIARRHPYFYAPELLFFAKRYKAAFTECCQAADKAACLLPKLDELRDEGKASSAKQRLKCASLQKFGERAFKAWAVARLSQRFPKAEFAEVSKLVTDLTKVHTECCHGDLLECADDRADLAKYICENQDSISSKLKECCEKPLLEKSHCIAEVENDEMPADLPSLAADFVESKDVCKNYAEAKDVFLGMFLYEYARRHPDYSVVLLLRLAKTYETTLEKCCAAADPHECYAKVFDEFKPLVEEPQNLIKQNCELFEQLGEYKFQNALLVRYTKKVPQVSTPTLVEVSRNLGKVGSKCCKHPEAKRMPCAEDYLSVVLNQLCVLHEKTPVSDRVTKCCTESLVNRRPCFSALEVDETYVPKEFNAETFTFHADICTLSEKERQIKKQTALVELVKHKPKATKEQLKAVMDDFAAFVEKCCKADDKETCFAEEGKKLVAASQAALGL

A549 [23] = assay: Antiproliferative activity against human A549 cells assessed as reduction on cell proliferation in presence of beta-glucuronidase measured after 72 hrs by MTT assay; format: functional, cell-based
4T1 [24] = assay: Antitumor activity against mouse 4T1 cells implanted in female BALB/c mouse assessed as reduction on tumor volume at 0.6 to 1.2 mg/kg, iv administered twice a week for 2 weeks; format: functional, organism-based; conditions: dose 0.6-1.2 mg/kg
[25] = Plasma protein binding in female BALB/c mouse measured after 2 mins by HPLC analysis; format: ADME, cell-free; conditions: read-out: PPB (converted)
[26] = Toxicity in mouse 4T1 cells implanted in female BALB/c mouse assessed as pathological changes in spleen at 0.6 to 1.2 mg/kg, iv by H and E staining based analysis; format: organism-based; conditions: in vivo, dose 0.6-1.2 mg/kg
HCT-116 [27] = assay: Antiproliferative activity against human HCT-116 cells assessed as reduction on cell proliferation in presence of beta-glucuronidase measured after 72 hrs by MTT assay; format: functional, cell-based
4T1 [28] = assay: Antiproliferative activity against mouse 4T1 cells assessed as reduction on cell proliferation measured after 72 hrs by MTT assay; format: functional, cell-based
[29] = Toxicity in mouse 4T1 cells implanted in female BALB/c mouse assessed as pathological changes in lung at 0.6 to 1.2 mg/kg, iv by H and E staining based analysis; format: organism-based; conditions: in vivo, dose 0.6-1.2 mg/kg
4T1 [30] = assay: Antitumor activity against mouse 4T1 cells implanted in female BALB/c mouse assessed as inhibition of tumor growth at 1.2 mg/kg, iv administered twice a week for 2 weeks measured on day 18; format: functional; set-up: scale not given: the % may be the effect or the level left; conditions: time 18 day
[31] = Drug distribution in mouse 4T1 cells implanted in female BALB/c mouse assessed as fold change in tumor at 1.2 mg/kg, iv measured after 48 hrs by fluorescence detector; format: ADME, organism-based, Neoplasm; conditions: in vivo
[32] = Drug distribution in mouse 4T1 cells implanted in female BALB/c mouse assessed as fold change in tumor at 1.2 mg/kg, iv measured after 2 hrs by fluorescence detector; format: ADME, organism-based, Neoplasm; conditions: in vivo
MCF7 [33] = assay: Antiproliferative activity against human MCF7 cells assessed as reduction on cell proliferation measured after 72 hrs by MTT assay; format: functional, cell-based
albumin [34] = biological target: T1, albumin; assay: Protein binding in human serum albumin measured after 8 mins by HPLC analysis; format: ADME, cell-free; conditions: read-out: PPB (converted)
A549 [35] = assay: Antiproliferative activity against human A549 cells assessed as reduction on cell proliferation measured after 72 hrs by MTT assay; format: functional, cell-based
MCF7 [36] = assay: Antiproliferative activity against human MCF7 cells assessed as reduction on cell proliferation in presence of beta-glucuronidase measured after 72 hrs by MTT assay; format: functional, cell-based
[37] = Toxicity in female BALB/c mouse assessed as body weight loss at 0.2 to 1.2 mg/kg, iv administered once daily for 14 consecutive days; format: organism-based; conditions: in vivo, 336 h, dose 0.2-1.2 mg/kg, time 14 day
4T1 [38] = assay: Antitumor activity against mouse 4T1 cells implanted in female BALB/c mouse assessed as reduction on tumor volume at 0.5 mg/kg, iv administered twice a week for 2 weeks; format: functional, organism-based
[39] = Drug accumulation in mouse 4T1 cells implanted female BALB/c mouse tumor at 0.5 mg/kg, iv after 2 hrs by fluorescence detector; format: ADME, organism-based, Neoplasm; conditions: in vivo
4T1 [40] = assay: Antitumor activity against mouse 4T1 cells implanted in female BALB/c mouse assessed as inhibition of tumor growth at 0.5 mg/kg, iv administered twice a week for 2 weeks measured on day 18; format: functional; set-up: scale not given: the % may be the effect or the level left; conditions: time 18 day
[41] = Drug accumulation in mouse 4T1 cells implanted female BALB/c mouse lung at 0.5 mg/kg, iv by fluorescence detector; format: ADME, organism-based; conditions: in vivo
Mus musculus [42] = assay: Antitumor activity against mouse 4T1 cells implanted in female BALB/c mouse assessed as increase in body weight at 0.5 mg/kg, iv administered twice a week for 2 weeks; format: functional, organism-based
[43] = Drug accumulation in mouse 4T1 cells implanted female BALB/c mouse kidney at 0.5 mg/kg, iv by fluorescence detector; format: ADME, organism-based; conditions: in vivo

**Q.** Which Activity (HepG2 [1]) does the source give for `CC[C@@]1(O)C(=O)OCc2c1cc1n(c2=O)Cc2c-1nc1cc3c(cc1c2-c1cc[n+](Cc2ccc(O[C@@H]4O[C@@H](C(=O)O)[C@@H](O)[C@H](O)[C@H]4O)c(NC(=O)CCCn4cc(CNC(=O)CCCCCN5C(=O)C=CC5=O)nn4)c2)cc1)OCO3.O=C([O-])C(F)(F)F` here?
**A.** Active

**Q.** And the fraction unbound at 2 min [2]?
**A.** 0.0188

**Q.** And the fraction unbound at 15 s [3]?
**A.** 0.034

**Q.** What about the Activity (4T1 [4]) of the same molecule?
**A.** Active

**Q.** And the “fold change (FC)” value [5]?
**A.** 18

**Q.** What about the fraction unbound at 15 s [6] of the same molecule?
**A.** 0.0224

**Q.** And the Activity (4T1 [7])?
**A.** Active

**Q.** What about the Activity (Mus musculus [8]) of the same molecule?
**A.** Active

**Q.** What about the Activity [9] of the same molecule?
**A.** Non-Toxic

**Q.** What about the fraction unbound at 15 s [10] of the same molecule?
**A.** 0.0723

**Q.** And the fraction unbound at 2 min [11]?
**A.** 0.0291

**Q.** And the Activity [12]?
**A.** 10%

**Q.** What about the MTD at 336 h [13] of the same molecule?
**A.** 2.5 mg/kg

**Q.** And the Activity (HepG2 [14])?
**A.** Active

**Q.** What about the Drug uptake [15] of the same molecule?
**A.** 17.34%

**Q.** And the “fold change (FC)” value [16]?
**A.** 16

**Q.** What about the Activity (4T1 [17]) of the same molecule?
**A.** Active

**Q.** And the Activity (4T1 [18])?
**A.** 56%

**Q.** And the Activity [19]?
**A.** Non-Toxic

**Q.** And the Activity [20]?
**A.** Non-Toxic

**Q.** What about the Activity (HCT-116 [21]) of the same molecule?
**A.** Active

**Q.** And the fraction unbound at 15 s (albumin [22])?
**A.** 0.0679

**Q.** And the Activity (A549 [23])?
**A.** Active

**Q.** What about the Activity (4T1 [24]) of the same molecule?
**A.** Active

**Q.** And the fraction unbound at 2 min [25]?
**A.** 0.0512

**Q.** And the Activity [26]?
**A.** Non-Toxic

**Q.** And the Activity (HCT-116 [27])?
**A.** Active

**Q.** What about the Activity (4T1 [28]) of the same molecule?
**A.** Active

**Q.** And the Activity [29]?
**A.** Non-Toxic

**Q.** What about the Activity (4T1 [30]) of the same molecule?
**A.** 77%

**Q.** What about the “fold change (FC)” value [31] of the same molecule?
**A.** 14

**Q.** And the “fold change (FC)” value [32]?
**A.** 9

**Q.** What about the Activity (MCF7 [33]) of the same molecule?
**A.** Active

**Q.** And the fraction unbound at 8 min (albumin [34])?
**A.** 0.015

**Q.** What about the Activity (A549 [35]) of the same molecule?
**A.** Active

**Q.** And the Activity (MCF7 [36])?
**A.** Active

**Q.** Which results are given for `CC[C@@]1(O)C(=O)OCc2c1cc1n(c2=O)Cc2c-1nc1cc3c(cc1c2-c1ccncc1)OCO3`?
**A.** Activity [37]: 10%; Activity (4T1 [38]): Active; Drug uptake [39]: 1.09%; MTD at 336 h [13]: 0.4 mg/kg; Activity (4T1 [40]): 27%; Drug uptake [41]: Active; Activity (Mus musculus [42]): Active; Drug uptake [43]: Active
